Measured values from patent publication US9580430B2, “9H-pyrimido[4,5-B]indoles and related analogs as BET bromodomain inhibitors” (THE REGENTS OF THE UNIVERSITY OF MICHIGAN, priority 2014, dated 2017).

Key:
MDA-MB-436 = experiment: Cell growth inhibition, MDA-MB-436 breast cancer cells (WST-8); type: cell-based; conditions: Homo sapiens, MDA-MB-436, 96 h; 4 days; read-out: IC50 (nM) MDA-MB-436 Cell Line (WST assay)
Description: All the breast cancer cell lines were obtained from the ATCC. Cell viability was determined using the WST-8 (2-(2-methoxy-4-nitrophenyl)-3-(4-nitrophenyl)-5-(2,4-disulfophenyl)-2H-tetrazolium, monosodium salt) based Cell Counting-8 Kit (Dojindo Molecular Technologies, Inc., Rockville, Md.) according to the manufacture's instruction. […] The absorbance was measured at 450 nm using a SPECTRAmax PLUS plate reader (Molecular Devices, Sunnyvale, Calif.). The IC50 was calculated using the GraphPad Prism 5 software.

MOLM-13 = experiment: Cell growth inhibition, MOLM-13 leukemia cells (CellTiter-Glo); type: cell-based; conditions: Homo sapiens, MOLM-13, 96 h; 4 days; read-out: IC50 (nM) MOLM-13 Cell Line (CellTiter-Glo assay)
Description: Cell growth inhibitory activity of representative Compounds of the Disclosure was determined using CellTiter-Glo® Luminescent Cell Viability Assay. […] Cell viability was determined using the CellTiter-Glo® Luminescent Cell Viability Assay Kit (Promega, Madison, Wis.) according to the manufacture's instruction. Briefly, a volume of CellTiter-Glo® Reagent equal to the volume of cell culture medium was added to each well, and then the plates were incubated at room temperature for 10-20 minutes. The luminescent signal was measured using a Tecan Infinite M1000 multimode microplate reader (Tecan, Morrisville, N.C.). The half maximal inhibitory concentration (IC50) was calculated using the GraphPad Prism 5 software (GraphPad Software, La Jolla, Calif.).

recombinant BRD4 BD2 = biological target: T1, recombinant BRD4 BD2 (Homo sapiens, UniProt O60885); experiment: Competitive fluorescence-polarization (FP) binding assay, BRD4 BD2; conditions: competitive FP assay; protein 6 nM, probe […]; read-out: IC50 (nM) BRD4 BD2; note: probe 1.5 nM
T1 construct: for recombinant BRD4 BD1 and BRD4 BD2 proteins
Method in brief: (§1)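 Buffer: 100 mM potassium phosphate, pH 6.5, 0.01% Triton X-100; compounds added in buffer with 40% ethylene glycol to preformed complex of fluorescent probe with BRD4 BD1 (10 nM final) or BD2 (6 nM final). After 30 min at room temperature, polarization read. IC50 from nonlinear fits of competition curves, with Ki.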

recombinant BRD4 BD1 = biological target: T2, recombinant BRD4 BD1 (Homo sapiens, UniProt O60885); experiment: Competitive fluorescence-polarization (FP) binding assay, BRD4 BD1; conditions: competitive FP assay; protein 10 nM, probe […]; read-out: IC50 (nM) BRD4 BD1; note: probe 1.5 nM
T2 construct: for recombinant BRD4 BD1 and BRD4 BD2 proteins
Method in brief: as §1

SMILES	IC50 (MDA-MB-436)	IC50 (MOLM-13)	IC50 (recombinant BRD4 BD2)	IC50 (recombinant BRD4 BD1)
COc1cc2c(cc1-c1c(C)noc1C)[nH]c1nc(C)nc(Nc3nn(C)c4cccnc34)c12 [Cpd. No. 123, 7-(3,5-Dimethylisoxazol-4-yl)-6-methoxy-2-methyl-N-(1-methyl-1H-pyrazolo[4,3-b]pyridin-3-yl)-9H-pyrimido[4,5-b]indol-4-amine]	1420 nM	759 nM	483 nM	257 nM
COc1cc2c(cc1-c1c(C)noc1C)[nH]c1nc(C)nc(Nc3cc(C)ccc3C)c12 [Cpd. No. 238, 7-(3,5-dimethylisoxazol-4-yl)-N-(2,5-dimethylphenyl)-6-methoxy-2-methyl-9H-pyrimido[4,5-b]indol-4-amine]	61 nM	39 nM	3 nM	5 nM
COc1ccc2c(Nc3nc(C)nc4[nH]c5cc(-c6c(C)noc6C)c(OC)cc5c34)nn(C)c2c1 [Cpd. No. 19, 7-(3,5-Dimethylisoxazol-4-yl)-6-methoxy-N-(6-methoxy-1-methyl-1H-indazol-3-yl)-2-methyl-9H-pyrimido[4,5-b]indol-4-amine]	323 nM	109 nM	613 nM	200 nM
COc1cc2c(cc1-c1c(C)noc1C)[nH]c1nc(C)nc(Nc3cnn4cccnc34)c12 [Cpd. No. 16, 7-(3,5-Dimethylisoxazol-4-yl)-6-methoxy-2-methyl-N-(pyrazolo[1,5-a]pyrimidin-3-yl)-9H-pyrimido[4,5-b]indol-4-amine]	529 nM	14.6 nM	194 nM	248 nM
COc1cc2c(cc1-c1c(C)noc1C)[nH]c1nc(C)nc(Nc3cccc(Cl)c3F)c12 [Cpd. No. 217, N-(3-chloro-2-fluorophenyl)-7-(3,5-dimethylisoxazol-4-yl)-6-methoxy-2-methyl-9H-pyrimido[4,5-b]indol-4-amine]	1930 nM	498 nM	68 nM	165 nM
COc1cc2c(cc1-c1c(C)noc1C)[nH]c1nc(C)nc(Nc3cnccc3C)c12 [Cpd. No. 109, 7-(3,5-dimethylisoxazol-4-yl)-6-methoxy-2-methyl-N-(4-methylpyridin-3-yl)-9H-pyrimido[4,5-b]indol-4-amine]	679 nM	12 nM	253 nM	284 nM
COc1cc2c(cc1-c1c(C)noc1C)[nH]c1nc(C(C)C)nc(Nc3nn(C)c4ccccc34)c12 [Cpd. No. 18, 7-(3,5-Dimethylisoxazol-4-yl)-2-isopropyl-6-methoxy-N-(1-methyl-1H-indazol-3-yl)-9H-pyrimido[4,5-b]indol-4-amine]	141 nM	86.2 nM	1160 nM	211 nM
COc1cc2c(cc1-c1c(C)noc1C)[nH]c1nc(C)nc(Nc3cncc(Cl)c3)c12 [Cpd. No. 106, N-(5-chloropyridin-3-yl)-7-(3,5-dimethylisoxazol-4-yl)-6-methoxy-2-methyl-9H-pyrimido[4,5-b]indol-4-amine]	618 nM	56 nM	619 nM	1410 nM
COc1cc2c(cc1-c1c(C)noc1C)[nH]c1nc(C)nc(Nc3cn(C)nc3C3CC3)c12 [Cpd. No. 195, N-(3-cyclopropyl-1-methyl-1H-pyrazol-4-yl)-7-(3,5-dimethylisoxazol-4-yl)-6-methoxy-2-methyl-9H-pyrimido[4,5-b]indol-4-amine]	75.1 nM	29.1 nM	14.4 nM	16.6 nM
COc1cc2c(cc1-c1c(C)noc1C)[nH]c1nc(C)nc(Nc3c4c(nn3C)CCC4)c12 [Cpd. No. 122, 7-(3,5-Dimethylisoxazol-4-yl)-6-methoxy-2-methyl-N-(2-methyl-2,4,5,6-tetrahydrocyclopenta-[c]pyrazol-3-yl)-9H-pyrimido[4,5-b]indol-4-amine]	7.8 nM	6 nM	2.3 nM	4.3 nM
COc1cc2c(cc1-c1c(C)noc1C)[nH]c1nc(C)nc(Nc3nn(C)c4cccc(F)c34)c12 [Cpd. No. 132, 7-(3,5-Dimethylisoxazol-4-yl)-N-(4-fluoro-1-methyl-1H-indazol-3-yl)-6-methoxy-2-methyl-9H-pyrimido[4,5-b]indol-4-amine]	224 nM	97.5 nM	718 nM	68.6 nM
COc1cc2c(cc1-c1c(C)noc1C)[nH]c1nc(C)nc(Nc3c(C(C)C)nn(C)c3C)c12 [Cpd. No. 194, 7-(3,5-dimethylisoxazol-4-yl)-N-(3-isopropyl-1,5-dimethyl-1H-pyrazol-4-yl)-6-methoxy-2-methyl-9H-pyrimido[4,5-b]indol-4-amine]	59.6 nM	13.2 nM	14.2 nM	10.1 nM
COc1cc2c(cc1-c1c(C)noc1C)[nH]c1nc(C)nc(Oc3cncc(Br)c3)c12 [Cpd. No. 105, 4-(4-(5-bromopyridin-3-yloxy)-6-methoxy-2-methyl-9H-pyrimido[4,5-b]indol-7-yl)-3,5-dimethylisoxazole]	885 nM	371 nM	868 nM	> 1000 nM
COc1cc2c(cc1-c1c(C)noc1C)[nH]c1nc(C)nc(Nc3c(C4CC4)nn(C)c3C3CC3)c12 [Cpd. No. 239, N-(3,5-dicyclopropyl-1-methyl-1H-pyrazol-4-yl)-7-(3,5-dimethylisoxazol-4-yl)-6-methoxy-2-methyl-9H-pyrimido[4,5-b]indol-4-amine]	43 nM	22 nM	28 nM	19 nM
COc1cc2c(cc1-c1c(C)noc1C)[nH]c1nc(C)nc(Nc3n[nH]c(C)c3-c3ccccc3)c12 [Cpd. No. 5, 7-(3,5-Dimethylisoxazol-4-yl)-6-methoxy-2-methyl-N-(5-methyl-4-phenyl-1H-pyrazol-3-yl)-9H-pyrimido[4,5-b]indol-4-amine]	719 nM	475 nM	381 nM	340 nM
COc1cc2c(cc1-c1c(C)noc1C)[nH]c1nc(C)nc(Nc3cccc4ncccc34)c12 [Cpd. No. 211, 7-(3,5-dimethylisoxazol-4-yl)-6-methoxy-2-methyl-N-(quinolin-5-yl)-9H-pyrimido[4,5-b]indol-4-amine]	57 nM	76 nM	17 nM	16 nM
COc1cc2c(cc1-c1c(C)noc1C)[nH]c1nc(C)nc(Nc3cc(C4CCC4)nn3C)c12 [Cpd. No. 136, N-(3-Cyclobutyl-1-methyl-1H-pyrazol-5-yl)-7-(3,5-dimethylisoxazol-4-yl)-6-methoxy-2-methyl-9H-pyrimido[4,5-b]indol-4-amine]	63.2 nM	26.6 nM	6.9 nM	10.5 nM
COc1cc2c(cc1-c1c(C)noc1C)[nH]c1nc(C)nc(Nc3c(C)cnn3C3CCC3)c12 [Cpd. No. 198, N-(1-cyclobutyl-4-methyl-1H-pyrazol-5-yl)-7-(3,5-dimethylisoxazol-4-yl)-6-methoxy-2-methyl-9H-pyrimido[4,5-b]indol-4-amine]	58.7 nM	25.7 nM	3.6 nM	6.9 nM
COc1cc2c(cc1-c1c(C)noc1C)[nH]c1nc(C)nc(Nc3c(C)c(C)nn3C(C)C)c12 [Cpd. No. 81, 7-(3,5-dimethylisoxazol-4-yl)-N-(1-isopropyl-3,4-dimethyl-1H-pyrazol-5-yl)-6-methoxy-2-methyl-9H-pyrimido[4,5-b]indol-4-amine]	67 nM	22.9 nM	19.6 nM	5.1 nM
COc1cc2c(cc1-c1c(C)noc1C)[nH]c1nc(C)nc(Nc3cccc4c3ccn4C)c12 [Cpd. No. 236, 7-(3,5-dimethylisoxazol-4-yl)-6-methoxy-2-methyl-N-(1-methyl-1H-indol-4-yl)-9H-pyrimido[4,5-b]indol-4-amine]	117 nM	49 nM	59 nM	14 nM
COc1cc2c(cc1-c1c(C)noc1C)[nH]c1nc(C)nc(Nc3cn(C)nc3C3CCC3)c12 [Cpd. No. 200, N-(3-cyclobutyl-1-methyl-1H-pyrazol-4-yl)-7-(3,5-dimethylisoxazol-4-yl)-6-methoxy-2-methyl-9H-pyrimido[4,5-b]indol-4-amine]	40 nM	25.4 nM	5.9 nM	10.9 nM
COc1cc2c(cc1-c1c(C)noc1C)[nH]c1nc(C)nc(Nc3cc(C)nn3C3CCC3)c12 [Cpd. No. 119, N-(1-Cyclobutyl-3-methyl-1H-pyrazol-5-yl)-7-(3,5-dimethylisoxazol-4-yl)-6-methoxy-2-methyl-9H-pyrimido[4,5-b]indol-4-amine]	26 nM	38.8 nM	10.6 nM	11.4 nM
